From US20150125402A1, “ANTIMICROBIAL AGENTS” (BEDOUKIAN RESEARCH, INC., priority 2012, published 2015) come the findings set out here.

Structures are written as SMILES. ≈ marks a conversion by molar mass, not a printed value. Some results are limits rather than exact numbers.

Holding throughout (format): cell-based
For assay [1], the system named is Escherichia coli. The assay can be described thus: Bactericidal activity in solution (Activity % Reduction). To be noted: 2000 ppm in water at ambient temperature. The method, then:
(§1) In a second assay, compounds of this invention were screened for activity to kill bacteria in solution over a short period of time. Bactericidal activity is expressed as Activity % Reduction. All samples were tested in water at ambient temperature and at a concentration of 2000 ppm.

The test system of assay [2] is Staphylococcus aureus. Described as above. Conditions: 2000 ppm in water at ambient temperature. The protocol:
as §1

Assay [3] deals with Staphylococcus epidermidis. The assay can be described thus: Minimum Inhibition Concentration (MIC) screen. To be noted: strain ATTC 12228. The protocol:
(§2) To test the compounds as antimicrobial agents, the compounds were screened for activity to inhibit bacteria, yeast and mold. The Minimum Inhibition Concentration (MIC) is determined as the lowest concentration activity to inhibit the microorganism.

For assay [4], the system named is Pseudomonas aeruginosa. The assay can be described thus: Minimum Inhibition Concentration (MIC) screen. To be noted: strain ATTC 15442. The protocol: as §2
The test system of assay [5] is Escherichia coli. The assay can be described thus: Minimum Inhibition Concentration (MIC) screen. Conditions: strain ATTC 10536. The method, then:
as §2

In assay [6] the test system is Staphylococcus aureus. The assay can be described thus: Minimum Inhibition Concentration (MIC) screen. To be noted: strain ATTC 6538. The protocol: as §2
Assay [7] deals with Candida albicans. The assay is described as follows: Minimum Inhibition Concentration (MIC) screen. To be noted: strain ATTC 10231. The protocol:
as §2

Assay [8] deals with Aspergillus brasiliensis. The assay can be described thus: Minimum Inhibition Concentration (MIC) screen. To be noted: strain ATTC 16404. The protocol:
as §2

Regarding `CCCCC1CC(=O)C=C(C)C1` (stereo not shown) [3-Methyl-5-Butyl-2-Cyclohexenone, 3-methyl-5-butyl-2-cyclohexenone], the inhibition – broadly, the relative decrease from the control value, in per cent – at 2000 ppm turned out to be 83.8% in assay [1] (5 min), 100% in assay [1] (1 hour), 33.9% in assay [2] (5 min) and 33.2% in assay [2] (1 hour). The MIC (in general, the lowest concentration found to suppress growth) was 1000 µg/mL (≈ 6.01 mM) in assay [3]; over 1000 µg/mL in assay [4]; 500 µg/mL (≈ 3.01 mM) in assay [5]; 500 µg/mL (≈ 3.01 mM) in assay [6]; 500 µg/mL (≈ 3.01 mM) in assay [7]; 250 µg/mL (≈ 1.5 mM) in assay [8].

With `CCCC1CC(=O)C=C(C)C1` (stereo not shown) [3-Methyl-5-Propyl-2-Cyclohexenone, 3-methyl-5-propyl-2-cyclohexenone], the inhibition at 2000 ppm in assay [1] (5 min) turned out to be 69.5%; in assay [1] (1 hour), 99%; in assay [2] (5 min) it was 29.2%; in assay [2] (1 hour) it was 33.9%. For the same compound, the minimal inhibitory concentration (MIC) in assay [3] is over 1000 µg/mL; in assay [4] it was over 1000 µg/mL; in assay [5], 1000 µg/mL (≈ 6.57 mM); in assay [6], 1000 µg/mL (≈ 6.57 mM); in assay [7], 1000 µg/mL (≈ 6.57 mM); in assay [8], 500 µg/mL (≈ 3.28 mM).

As for `CCCCC1CC(C)=CC(O)C1` (stereo not shown) [3-Methyl-5-Butyl-2-Cyclohexenol, 3-methyl-5-butyl-2-cyclohexenol], the inhibition at 2000 ppm in assay [1] (5 min) is 34.7%; in assay [1] (1 hour) it was 88.5%; in assay [2] (5 min), 28.4%; in assay [2] (1 hour) it was 39%. Further, the minimum inhibitory concentration (MIC) in assay [3] is 125 µg/mL (≈ 0.743 mM); in assay [4], over 1000 µg/mL; in assay [5], over 1000 µg/mL; in assay [6] it was 125 µg/mL (≈ 0.743 mM); in assay [7], 125 µg/mL (≈ 0.743 mM); in assay [8], 250 µg/mL (≈ 1.49 mM).

Turning to `CCCCCCCC1CC(=O)C=C(C)C1` (stereo not shown) [3-Methyl-5-Heptyl-2-Cyclohexenone, 3-methyl-5-heptyl-2-cyclohexenone], the inhibition at 2000 ppm in assay [1] (5 min) came out at 13.9%; in assay [1] (1 hour), 25%; in assay [2] (5 min) it was 37.6%; in assay [2] (1 hour), 24.1%. Besides, the MIC in assay [3] is 31.2 µg/mL (≈ 0.15 mM); in assay [4], over 1000 µg/mL; in assay [5], over 1000 µg/mL; in assay [6] it was 15.6 µg/mL (≈ 0.0749 mM); in assay [7] it was over 1000 µg/mL; in assay [8], over 1000 µg/mL.
